Measured values as given in patent US20080286219A1, “Hydroquinone derivative skin brightening compounds” (priority 2007, published 2008).

molecular target: Mushroom Tyrosinase (Sigma T3824); experiment: General in vitro tyrosinase inhibition assay (L-Dopa oxidation to dopachrome); format: biochemical; conditions: 0.5 mM L-Dopa, pH 7.0, 30° C., 475 nm, 18 Units Mushroom Tyrosinase

Structure (SMILES)	EC50 [µM]
CC(=O)N[C@@H](CSc1cc(O)ccc1O)C(=O)O [Compound X29876-018]	4850
NC(CCC(=O)NC(CSc1cc(O)ccc1O)C(=O)NCC(=O)O)C(=O)O (stereo not shown) [Compound X29876-019]	10400
CCOC(=O)[C@@H](N)CSc1cc(O)ccc1O [Compound X29876-064]	250
C[C@H](CSc1cc(O)ccc1O)C(=O)N1CCC[C@H]1C(=O)O [Compound X29876-155]	12200
Cc1nc(Sc2cc(O)ccc2O)sc1CC(=O)O [Compound X29876-160]	520
O=C(O)CSc1cc(O)ccc1O [Compound X29876-163]	9410
CCOC(=O)CSc1cc(O)ccc1O [Compound X29876-169]	3280
CC(=O)C(C)Sc1cc(O)ccc1O (stereo not shown) [Compound X29876-181]	310
Oc1ccc(O)cc1 [Hydroquinone, hydroquinone]	620

The next compounds have a lower EC50 than those just listed; values first:

EC50 [µM]	Structure (SMILES)
20	N[C@@H](CSc1cc(O)ccc1O)C(=O)O [Compound X29876-063]
70	CC(C)(Sc1cc(O)ccc1O)C(N)C(=O)O (stereo not shown) [Compound X29876-144]
130	COC(=O)[C@@H](N)CSc1cc(O)ccc1O [Compound X29876-145]
30	N[C@H](CSc1cc(O)ccc1O)C(=O)O [Compound X29876-147]
10	OCCCCCCSc1cc(O)ccc1O [Compound X29876-162]
200	Oc1ccc(O)c(SCc2cccs2)c1 [Compound X29876-198]

same assay, conditions: compared to HQ

fold more potent than HQ	Structure (SMILES)
about 25 fold	N[C@@H](CSc1cc(O)ccc1O)C(=O)O [Compound X29876-063]
